The text below walks through data of ChEMBL document CHEMBL1201862, “PubChem BioAssay data set” (2004).

Some test systems named below: PC-3; OVCAR-4; MDA-MB-435; NCI-H522; TK-10; SK-MEL-5; DU-145; NCI/ADR-RES; SNB-75; SF-539; SNB-19; HCT-15; BT-549; COLO 205; SK-OV-3; UACC-62; K562; UACC-257; OVCAR-3; Malme-3M.
Test in all cases: DTP human tumour cell line panel, 48 h

The structures appear in SMILES notation.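 A five-concentration, 48-hour dose response in 96-well plates underlies each endpoint, interpolated linearly between surrounding concentrations. GI50: concentration for 50% inhibition of growth.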 Calls of active or inactive are those of the source. Cut-off read from the data, not from the text of the source: active = GI50 up to about 1.1 µM and inactive = higher. Bounds are passed on as bounds.

For orientation: GI50 means the concentration giving 50% growth inhibition.

For the molecule `CCOC(OCC)[C@@H]1C[C@@H]2N(O[C@H](OC3CCCC3(c3ccccc3)c3ccccc3)[C@H](OC(C)=O)[C@@]2(CC)Cc2ccc(OC)c(OC)c2)O1` (some centres undefined), the GI50 in the experiment with PC-3, with OVCAR-4, in the experiment on MDA-MB-435, in the experiment on NCI-H522, in the experiment with TK-10 and with SK-MEL-5 was > 100 µM (inactive) throughout. Besides, the GI50 in the experiment on DU-145 is > 100 µM (inactive); in the experiment on NCI/ADR-RES it was > 100 µM (inactive); with SNB-75 it was > 100 µM (inactive); in the experiment with SF-539 it was > 100 µM (inactive); in the experiment on SNB-19, > 100 µM (inactive); in the experiment on HCT-15 it was over 100 µM. Also, the GI50 in the experiment on BT-549, in the experiment with COLO 205, with SK-OV-3, with UACC-62, in the experiment on K562 and in the experiment on UACC-257 was > 100 µM (inactive) throughout. The GI50 in the experiment on OVCAR-3 was > 100 µM (inactive).

As for `Cc1ccc(S(=O)(=O)C2=C(C(C)C)N=NC2(C)C)cc1`, the GI50 in the experiment with PC-3 is > 100 µM (inactive); in the experiment with OVCAR-4 it was 72.9 µM (inactive); with MDA-MB-435 it was 47.6 µM (inactive); with NCI-H522 it was 36 µM (inactive); with TK-10 it was > 100 µM (inactive); in the experiment with SK-MEL-5, 79.8 µM (inactive). Further, the GI50 in the experiment with DU-145 is 87.1 µM (inactive); with NCI/ADR-RES, 64.7 µM (inactive); with SNB-75, 95.3 µM (inactive); in the experiment on SF-539, > 100 µM (inactive); with SNB-19, > 100 µM (inactive); in the experiment with HCT-15 it was 73.6 µM. Moreover, the GI50 with BT-549 is 48.8 µM (inactive); with K562, 28.6 µM (inactive); in the experiment with UACC-257, > 100 µM (inactive); with OVCAR-3, > 100 µM (inactive).

Turning to `CO/N=C(\C)c1cccc(Nc2c3ccccc3nc3occc23)c1`, the GI50 in the experiment on PC-3 is 16.8 µM (inactive); in the experiment on OVCAR-4 it was 4.75 µM (inactive); in the experiment with MDA-MB-435, 2.34 µM (inactive); in the experiment on Malme-3M, 13.4 µM (inactive); in the experiment with NCI-H522, 3.66 µM (inactive); with TK-10 it was 20.4 µM (inactive). Besides, the GI50 was 6.22 µM (inactive) with SK-MEL-5; 18.9 µM (inactive) in the experiment on DU-145; 4.12 µM (inactive) in the experiment on NCI/ADR-RES; 9.06 µM (inactive) with SF-539; 17.5 µM (inactive) in the experiment on SNB-19; 6.21 µM with HCT-15. In addition, the GI50 with BT-549 is 18.1 µM (inactive); with COLO 205, 5.24 µM (inactive); with SK-OV-3, 14.4 µM (inactive); with UACC-62, 7.55 µM (inactive); in the experiment with K562, 4.11 µM (inactive); in the experiment with UACC-257, 12.5 µM (inactive). The GI50 with OVCAR-3 was 4.72 µM (inactive).

For the molecule `CCOC(=O)CSc1nc(-c2ccc(OC)cc2)c(C#N)c(=O)[nH]1`, the GI50 in the experiment on PC-3, with OVCAR-4, in the experiment with MDA-MB-435, in the experiment on NCI-H522, with TK-10 and with SK-MEL-5 was > 100 µM (inactive) in each case. The GI50 with DU-145 is > 100 µM (inactive); in the experiment with NCI/ADR-RES, > 100 µM (inactive); with SNB-75, > 100 µM (inactive); in the experiment with SF-539, > 100 µM (inactive); in the experiment with SNB-19, > 100 µM (inactive); in the experiment on HCT-15, over 100 µM. In addition, the GI50 in the experiment with BT-549, in the experiment with COLO 205, in the experiment on SK-OV-3, in the experiment with UACC-62, in the experiment with K562 and in the experiment with UACC-257 was > 100 µM (inactive) in each case. In addition, in the experiment with OVCAR-3, the GI50 is > 100 µM (inactive).

As to `COC(=O)Nc1nc2cc(NC(=O)c3cccs3)ccc2[nH]1`, the GI50 was 30.2 µM (inactive) in the experiment on PC-3; 74 µM (inactive) in the experiment with OVCAR-4; 8.57 µM (inactive) in the experiment with MDA-MB-435; 23.4 µM (inactive) in the experiment with Malme-3M; 36.6 µM (inactive) with TK-10; 15.6 µM (inactive) in the experiment on SK-MEL-5. Also, the GI50 is 98.9 µM (inactive) in the experiment with DU-145; 17.9 µM (inactive) in the experiment with NCI/ADR-RES; 15.7 µM (inactive) in the experiment on SNB-75; 21.9 µM (inactive) with SF-539; 32.1 µM (inactive) in the experiment on SNB-19; 23.9 µM with HCT-15. The GI50 was 55.1 µM (inactive) with BT-549; 29.6 µM (inactive) in the experiment on COLO 205; 29 µM (inactive) in the experiment with SK-OV-3; 52.2 µM (inactive) in the experiment on UACC-62; 24.3 µM (inactive) with K562; 19.2 µM (inactive) with OVCAR-3.

Take `CC(C)c1cc(C(C)C)c(Cl)c(Cl)c1O.CC(C)c1cc(Cl)c(O)c(C(C)C)c1Cl`: the GI50 was 19.5 µM (inactive) with PC-3; 21.4 µM (inactive) in the experiment with MDA-MB-435; 24.8 µM (inactive) in the experiment on Malme-3M; 14 µM (inactive) in the experiment with NCI-H522; 26.5 µM (inactive) with TK-10; 0.063 µM (active) in the experiment on SK-MEL-5. For the same molecule, the GI50 was 35 µM (inactive) in the experiment on DU-145; 32.8 µM (inactive) with NCI/ADR-RES; 20 µM (inactive) with SF-539; 23 µM (inactive) in the experiment on SNB-19; 36.7 µM with HCT-15; 19.9 µM (inactive) in the experiment with BT-549. Further, the GI50 in the experiment with COLO 205 is 20.2 µM (inactive); in the experiment on UACC-62, 19.6 µM (inactive); in the experiment on K562, 16.9 µM (inactive); in the experiment with UACC-257, 20 µM (inactive); with OVCAR-3, 24.5 µM (inactive).

Consider `COc1c(O)c(OC)c2oc(-c3ccc(O)cc3)c(OC)c(=O)c2c1O`, for which the GI50 is 48.6 µM (inactive) with PC-3; 33.6 µM (inactive) in the experiment with MDA-MB-435; 13.4 µM (inactive) in the experiment on Malme-3M; 26.1 µM (inactive) in the experiment with NCI-H522; 61.5 µM (inactive) with TK-10; 17.4 µM (inactive) in the experiment with SK-MEL-5. The GI50 in the experiment on DU-145 is 29.3 µM (inactive); in the experiment with NCI/ADR-RES, 61 µM (inactive); with SF-539 it was 55.3 µM (inactive); in the experiment with SNB-19 it was > 100 µM (inactive); in the experiment on HCT-15, 28.1 µM; with BT-549, 43.2 µM (inactive). Also, the GI50 in the experiment with COLO 205 was 99.5 µM (inactive); with SK-OV-3, 17 µM (inactive); with UACC-62 it was 22.7 µM (inactive); in the experiment on K562, 55.6 µM (inactive); in the experiment with UACC-257 it was 76.2 µM (inactive); with OVCAR-3, 14.8 µM (inactive).

Regarding `C[C@H](NC(=O)CNC(=O)CCCCCC(=O)NCC(=O)N[C@@H](C)C(=O)OCc1ccccc1)C(=O)OCc1ccccc1`, the GI50 in the experiment on PC-3, with OVCAR-4, in the experiment on MDA-MB-435, with Malme-3M, in the experiment with TK-10 and with DU-145 was > 100 µM (inactive) each time. Further, the GI50 in the experiment on NCI/ADR-RES is > 100 µM (inactive); with SNB-75 it was > 100 µM (inactive); with SF-539, > 100 µM (inactive); in the experiment on SNB-19, > 100 µM (inactive); in the experiment with HCT-15, over 100 µM; in the experiment with BT-549 it was > 100 µM (inactive). Moreover, the GI50 in the experiment with COLO 205, with SK-OV-3, with UACC-62, in the experiment on K562, in the experiment with UACC-257 and with OVCAR-3 was > 100 µM (inactive) in each case.

As for `O=C1CSC(c2ccc([N+](=O)[O-])cc2)N1c1ccc(-n2c(-c3ccccc3)nc3ccccc3c2=O)cc1` (centres undefined), the GI50 was > 100 µM (inactive) in the experiment on PC-3; 21.3 µM (inactive) in the experiment with OVCAR-4; > 100 µM (inactive) in the experiment with MDA-MB-435; > 100 µM (inactive) in the experiment on Malme-3M; 40.8 µM (inactive) in the experiment with NCI-H522; > 100 µM (inactive) with TK-10. The GI50 in the experiment with SK-MEL-5 is 82.2 µM (inactive); with DU-145 it was > 100 µM (inactive); in the experiment with NCI/ADR-RES it was 60.7 µM (inactive); in the experiment on SF-539 it was 42.9 µM (inactive); in the experiment on SNB-19, > 100 µM (inactive); in the experiment on HCT-15, 41.3 µM. For the same molecule, the GI50 with BT-549 is 16.7 µM (inactive); in the experiment with COLO 205 it was > 100 µM (inactive); in the experiment with SK-OV-3, > 100 µM (inactive); with UACC-62, 7.98 µM (inactive); in the experiment with K562, 86.9 µM (inactive); in the experiment on UACC-257 it was > 100 µM (inactive). The GI50 in the experiment on OVCAR-3 was > 100 µM (inactive).

Regarding `COc1cc2c(cc1C)NC(=O)/C2=C/c1c(Cl)n(C)c2ccccc12`, the GI50 in the experiment with PC-3 was 5.38 µM (inactive); with OVCAR-4, 6.87 µM (inactive); in the experiment with MDA-MB-435 it was 1.71 µM (inactive); in the experiment with Malme-3M, 8 µM (inactive); with TK-10 it was 12.4 µM (inactive); in the experiment on SK-MEL-5, 4.79 µM (inactive). In addition, the GI50 with DU-145 is 10.3 µM (inactive); in the experiment with NCI/ADR-RES, 3.61 µM (inactive); with SNB-75, 3.34 µM (inactive); in the experiment with SF-539, 12.1 µM (inactive); with SNB-19, 12.8 µM (inactive); in the experiment on HCT-15, 3.98 µM. In addition, the GI50 is 4.57 µM (inactive) with BT-549; 5.11 µM (inactive) in the experiment with COLO 205; 12.4 µM (inactive) with SK-OV-3; 5.73 µM (inactive) with UACC-62; 3.02 µM (inactive) in the experiment with K562; 11.9 µM (inactive) in the experiment on UACC-257. In addition, the GI50 in the experiment with OVCAR-3 was 4.11 µM (inactive).

As for `COC(=O)C[C@](O)(CCCC(C)(C)O)C(=O)O[C@@H]1C(OC)=C[C@]23CCCN2CCc2cc4c(cc2[C@H]13)OCO4` [OMACETAXINE MEPESUCCINATE], the GI50 in the experiment with PC-3 was 3.01 µM (inactive); with OVCAR-4, 0.342 µM (active); with MDA-MB-435, 4.46 µM (inactive); in the experiment on Malme-3M, 0.0568 µM (active); with TK-10 it was 3.74 µM (inactive); in the experiment with SK-MEL-5, 0.117 µM (active). For the same molecule, the GI50 with DU-145 is 0.741 µM (active); with NCI/ADR-RES, 3.87 µM (inactive); with SNB-75 it was 0.102 µM (active); in the experiment on SF-539, 0.056 µM (active); with SNB-19, 0.0706 µM (active); in the experiment on HCT-15, 0.217 µM. Also, the GI50 in the experiment with BT-549 was 3.6 µM (inactive); in the experiment on COLO 205, 0.218 µM (active); with SK-OV-3, 0.122 µM (active); in the experiment with UACC-62 it was 0.113 µM (active); in the experiment on K562, 0.0397 µM (active).
